Values of other authors, collected in paper PMC12308805, “Ultrahigh-Throughput Virtual Screening Strategies against PPI Targets: A Case Study of STAT Inhibitors” (Journal of Chemical Information and Modeling, 2025).

test system: STAT3; settings: cited from earlier work

Q: Which “Type (known STAT3 active)” value does the source give for `CC(C)C[C@H](NC(=O)/C=C/c1ccc(OP(=O)(O)O)cc1)C(=O)N1C[C@H]2C[C@H]2[C@H]1C(=O)N[C@@H](CCC(N)=O)COCc1ccccc1` [CHEMBL583727] here?
A: Active

same assay, conditions: sheet 6QHD_actives_decoys, retrospective screening set for STAT3 SH2 domain (PDB 6QHD); decoys are presumed inactives, not tested; ref DUD-E; cited from earlier work

Q: Which Type does the source give for `COc1cc(NC(=S)Nc2ccc(S(=O)(=O)/N=c3/cc(OC)nc(OC)[nH]3)cc2)cc(OC)c1` [Decoy884] here?
A: Inactive (Decoy)

Q: Which Type does the source give for `CC[C@H](C)[C@H](O)C(=O)O[C@H](C(=O)O[C@H](C(=O)OC[C@@H](O)[C@@H](O)[C@@H](O)[C@@H](O)CO)[C@@H](C)CC)[C@@H](C)CC` [Decoy860] here?
A: Inactive (Decoy)

Q: Which Type does the source give for `CC1(C)CC[C@]2(C(=O)O[C@@H]3O[C@H](CO)[C@@H](O)[C@H](O)[C@H]3O)CC[C@]3(C)C(=CC[C@H]4[C@@]5(C)CC[C@H](O[C@H]6OC[C@@H](O)[C@@H](O)[C@@H]6O)[C@@](C)(CO)[C@H]5CC[C@]43C)[C@@H]2C1` [Decoy930] here?
A: Inactive (Decoy)

Q: With `CCOC(=O)CCC(=O)O[C@H]1[C@@H](O[C@@H]2[C@H](C)[C@H](O[C@@H]3C[C@@](C)(OC)[C@H](O)[C@H](C)O3)[C@H](C)C(=O)O[C@@H](CC)[C@@](C)(O)[C@H](O)[C@H](C)C(=O)[C@H](C)C[C@@]2(C)O)O[C@@H](C)C[C@H]1N(C)C` [Decoy820] as the compound, how does the Type read?
A: Inactive (Decoy)

Q: For `CC(O)(O)C(=O)OCC(C)(COC(=O)C(C)(O)O)C(=O)OCC(C)(COC(=O)C(C)(COC(=O)C(C)(O)O)COC(=O)C(C)(O)O)C(=O)OCCS` [Decoy812], which Type is on record?
A: Inactive (Decoy)

Q: With `C=C1NC(=O)[C@@H]([C@@H](C)O)NC(=O)[C@@H](C(C)C)NC(=O)[C@@H](C)[C@@H](O)[C@H](C)[C@@H](CCCCCCCCC)OC1=O` [Decoy732] as the compound, how does the Type read?
A: Inactive (Decoy)

Q: With `COCCOC(=O)C1=C(C)NC(SCC(=O)Nc2ccc([N+](=O)[O-])cc2)=C(C#N)[C@@H]1c1ccco1` [Decoy833] as the compound, how does the Type read?
A: Inactive (Decoy)

Q: Which Type does the source give for `Nc1nnc(S(=O)(=O)N[C@]2(C(F)(F)F)C(=O)N=C3C2=C(O)NC(=O)N3Cc2cccnc2)s1` [Decoy794] here?
A: Inactive (Decoy)

Q: For `CCOc1ccc(-c2nn(-c3ccccc3)cc2C2C(C(=O)OCCOC)=C(C)NC(C)=C2C(=O)OCCOC)cc1C` [Decoy832], which Type is on record?
A: Inactive (Decoy)

Q: For `CC(=O)O[C@@H]1[C@@H](O)[C@H](CO)O[C@H](O[C@@H](/C=N/c2cnc([N+](=O)[O-])s2)[C@@H](CO)O[C@H](O)/C=N/c2cnc([N+](=O)[O-])s2)[C@@H]1O` [Decoy908], which Type is on record?
A: Inactive (Decoy)

Q: Which Type does the source give for `COc1cc(Cc2ccc(NC(=O)CSc3nc(N)cc(=O)[nH]3)c(OC)c2)ccc1NC(=O)CSc1nc(N)cc(=O)[nH]1` [Decoy750] here?
A: Inactive (Decoy)

Q: With `CC(C)(O)[C@@H](O)CC[C@@H](CO)[C@H]1CC[C@]2(C)C3=C(C[C@H](O)[C@@]12C)[C@@]1(C)C[C@H](O)[C@H](OC(=O)C[C@](C)(O)CC(=O)NCC(=O)O)C(C)(C)[C@H]1CC3` [Decoy836] as the compound, how does the Type read?
A: Inactive (Decoy)

Q: For `CCSc1nnc(NC(=O)CSc2n[nH]c(N/N=C/c3ccc(F)cc3)n2)s1` [Decoy803], which Type is on record?
A: Inactive (Decoy)

Q: Which Type does the source give for `Cc1cccc(N(C(=O)c2snc(C(N)=O)c2N)[C@H](C(=O)NCCC(C)C)c2ccc(N(C)C)cc2)c1` [Decoy870] here?
A: Inactive (Decoy)

Q: With `COc1ccc([C@H](O[C@@H]2O[C@H](CO)[C@@H](O)[C@H](O)[C@H]2O)[C@@H](CO)Oc2ccc(/C=C/CO)cc2OC)cc1O` [Decoy765] as the compound, how does the Type read?
A: Inactive (Decoy)

Q: Which Type does the source give for `C/C(=C(/CCO)SS/C(CCO)=C(\C)N(C=O)Cc1cnc(C)nc1N)N(C=O)Cc1cnc(C)nc1N` [Decoy780] here?
A: Inactive (Decoy)

Q: For `COC(=O)Cc1c(C(=O)OC)sc(NC(=O)CSc2nc(C(C)(C)C)n[nH]2)c1C(=O)OC` [Decoy810], which Type is on record?
A: Inactive (Decoy)

Q: With `C=CCOc1ccc([C@H]2C(C(=O)c3ccc(S(=O)(=O)N(C)C)cc3)=C(O)C(=O)N2CCCN(C)C)cc1OC` [Decoy790] as the compound, how does the Type read?
A: Inactive (Decoy)

Q: With `COc1cc([C@@H]2OC[C@H]3[C@@H]2CO[C@@H]3c2cc(OC)c(O[C@@H]3O[C@H](CO)[C@@H](O)[C@H](O)[C@H]3O[C@@H]3OC[C@](O)(CO)[C@H]3O)c(OC)c2)cc(OC)c1O` [Decoy817] as the compound, how does the Type read?
A: Inactive (Decoy)

same assay, conditions: sheet 6QHD_actives_decoys; known STAT3 actives of the retrospective screening set; ref ChEMBL / literature; cited from earlier work

Q: With `O=C(O)CCCNC(=O)[C@@H]1Cc2cccc3c2N1C(=O)[C@@H](NC(=O)/C=C/c1ccc(OP(=O)(O)O)cc1)CC3` [CHEMBL475488] as the compound, how does the “Type (known STAT3 active)” value read?
A: Active

same assay, conditions: sheet 6QHD_actives_decoys; retrospective screening set for STAT3 SH2 domain (PDB 6QHD); […]; ref DUD-E; cited from earlier work

Q: Which Type does the source give for `CCOC(=O)[C@@](NC(=O)Nc1ccc(S(=O)(=O)Nc2nnc(SCC)s2)cc1)(c1ccc(F)cc1)C(F)(F)F` [Decoy418] here?
A: Inactive (Decoy)

same assay, conditions: sheet 6QHD_actives_decoys; retrospective screening set for STAT3 SH2 domain (PDB 6QHD); decoys generated with DUD-E and presumed inactive, not tested; ref DUD-E; cited from earlier work

Q: For `CC1=C(/C(O)=N/c2ccc(S(N)(=O)=O)cc2)[C@H](c2ccco2)C(C#N)=C(SCC(=O)Nc2cccc(C(F)(F)F)c2)N1` [Decoy409], which Type is on record?
A: Inactive (Decoy)

Q: For `CCN(CC)S(=O)(=O)c1ccc(NC(=O)CSc2nnc(N/N=C/c3cccc(O)c3)n2N)cc1` [Decoy398], which Type is on record?
A: Inactive (Decoy)

Q: With `COC(=O)CCSCCO[C@@H]1O[C@H](CO)[C@@H](O[C@@H]2O[C@H](CO)[C@@H](O)[C@@H](O)[C@H]2O)[C@H](O)[C@H]1NC(C)=O` [Decoy354] as the compound, how does the Type read?
A: Inactive (Decoy)

Q: Which Type does the source give for `CC(=O)O[C@H]1[C@H](O)[C@H]([C@@](C)(O)CC[C@@H](O)C(C)(C)O)[C@@]2(C)CC[C@@]34C[C@@]35CC[C@H](O[C@@H]3OC[C@@H](O)[C@H](O)[C@H]3O)C(C)(C)[C@@H]5CC[C@H]4[C@]12C` [Decoy347] here?
A: Inactive (Decoy)

Q: For `CCOC(=O)c1ccc(NC(=O)C/C(C)=N/NC(=O)C(=O)Nc2cccc(Cl)c2C)cc1` [Decoy358], which Type is on record?
A: Inactive (Decoy)

Q: Which Type does the source give for `COC(=O)c1ccc(NC(=O)CSc2nc(N)c(NC(=O)c3ccc(Br)o3)c(=O)[nH]2)cc1` [Decoy351] here?
A: Inactive (Decoy)

Q: With `COc1ccc2[nH]cc(CCN/C(=N\C(=O)CS[C@H]3N=N[C@@H](N)S3)Nc3nc(C)cc(C)n3)c2c1` [Decoy359] as the compound, how does the Type read?
A: Inactive (Decoy)

Q: Which Type does the source give for `CC[C@H]1OC(=O)[C@H](C)[C@@H](O[C@@H]2C[C@](C)(OC)[C@H](O)[C@H](C)O2)[C@H](C)[C@H](O[C@H]2O[C@@H](C)C[C@@H](N(C)C)[C@H]2O)[C@](C)(O)C[C@@H](C)/C(=N\OCOCCOC)[C@H](C)[C@@H](O)[C@]1(C)O` [Decoy582] here?
A: Inactive (Decoy)

Q: For `COc1cc(/C=N/Nc2nc(SCC(=O)Nc3ccc(C)cc3C)n[nH]2)cc(OC)c1OC` [Decoy584], which Type is on record?
A: Inactive (Decoy)

Q: Which Type does the source give for `C=CCn1c(SCC(=O)Nc2sc(C(N)=O)c(C)c2C(=O)OC)nnc1-c1ccc(N(C)C)cc1` [Decoy380] here?
A: Inactive (Decoy)

Q: For `COC(=O)/C(=N/NC(C)(C)C)[C@@H](C(=O)C(=O)Nc1cc(C)ccc1C)c1nc2ccccc2[nH]c1=O` [Decoy341], which Type is on record?
A: Inactive (Decoy)

Q: With `CC(=O)O[C@H]([C@@H](OC(C)=O)[C@H](OC(C)=O)C(=O)NC1CCCCCC1)[C@H](OC(C)=O)C(=O)NC1CCCCCC1` [Decoy426] as the compound, how does the Type read?
A: Inactive (Decoy)

Q: Which Type does the source give for `CCOc1cc(/C=N/N=C2\NC(=O)[C@@H](CC(=O)O)S2)cc(Br)c1OS(=O)(=O)c1ccc(C)cc1` [Decoy551] here?
A: Inactive (Decoy)

Q: Which Type does the source give for `C[C@@H]1O[C@@H](O[C@H]2[C@H](O[C@@H]3CC[C@@H]4C(=CC[C@@H]5[C@@]4(C)C(=O)C[C@]4(C)[C@H]([C@@]6(C)O[C@@H](C(C)(C)O)CC6=O)[C@H](O)C[C@@]54C)C3(C)C)O[C@H](CO)[C@@H](O)[C@@H]2O)[C@H](O)[C@H](O)[C@H]1O` [Decoy471] here?
A: Inactive (Decoy)

Q: With `Cc1ccc(S(=O)(=O)NNc2ncnc(NNC(=O)c3ccccc3)c2[N+](=O)[O-])cc1` [Decoy575] as the compound, how does the Type read?
A: Inactive (Decoy)

Q: With `C[N+]1=C(/C=C/C=C2/N(CCCCC(=O)NCCOCCOCCNCCO[C@H]3O[C@@H](CO)[C@@H](O)[C@H](O)[C@H]3O)c3ccccc3C2(C)C)C(C)(C)c2ccccc21` [Decoy589] as the compound, how does the Type read?
A: Inactive (Decoy)

Q: Which Type does the source give for `COC(=O)c1sc(S(=O)(=O)NCC(=O)OCC(=O)Nc2cccc(C#N)c2)c(C(=O)OC)c1C` [Decoy364] here?
A: Inactive (Decoy)

Q: Which Type does the source give for `COC(=O)[C@@H]1O[C@H](OC/C(=N/NC(N)=O)[C@@]2(O)CC[C@@H]3[C@@H]4CC[C@@H]5C[C@H](OC(C)=O)CC[C@]5(C)[C@H]4C(=O)C[C@]32C)[C@@H](OC(C)=O)[C@H](OC(C)=O)[C@H]1OC(C)=O` [Decoy339] here?
A: Inactive (Decoy)

Q: For `C=C[C@](C)(CC/C=C(\C)CC/C=C(\C)C[C@H](O)/C=C(\C)C(=O)O)O[C@@H]1O[C@H](CO)[C@@H](O)[C@H](O)[C@H]1O[C@@H]1O[C@H](CO)[C@@H](O)[C@H](O)[C@H]1O` [Decoy689], which Type is on record?
A: Inactive (Decoy)

Q: Which Type does the source give for `CC1(C)CC[C@]2(C(=O)O[C@@H]3O[C@H](CO)[C@@H](O)[C@H](O)[C@H]3O)[C@H](O)C[C@]3(C)C(=CC[C@@H]4[C@@]5(C)CC[C@H](O[C@@H]6OC[C@H](O)[C@H](O)[C@H]6O)[C@@](C)(CO)[C@@H]5CC[C@]43C)[C@@H]2C1` [Decoy535] here?
A: Inactive (Decoy)

Q: Which Type does the source give for `COc1cc(NC(=S)/N=C(/NCCCN2CCOCC2)Nc2nc(C)cc(C)n2)cc(OC)c1OC` [Decoy386] here?
A: Inactive (Decoy)

Q: For `NC(=O)CSc1nnc(NC(=O)CSc2nnc(N/N=C/c3cccc4ccccc34)n2N)s1` [Decoy376], which Type is on record?
A: Inactive (Decoy)

Q: With `CC(C)(CC(=O)O)CC(=O)N1Cc2nc[nH]c2C[C@H]1c1nc(-c2ccc(F)c(Cl)c2)no1` [Decoy417] as the compound, how does the Type read?
A: Inactive (Decoy)

Q: Which Type does the source give for `COc1cc(C(=O)NCC(=O)N/N=C/c2cc(Br)ccc2OC(=O)c2ccc(C)cc2)cc(OC)c1OC` [Decoy362] here?
A: Inactive (Decoy)

Q: With `CCN(CC)c1ccc(/C=N/NC(=O)CN(c2cc(Cl)ccc2OC)S(=O)(=O)c2ccc(C)c([N+](=O)[O-])c2)cc1` [Decoy710] as the compound, how does the Type read?
A: Inactive (Decoy)

Q: With `COc1ccc(C(=O)Nc2ccc(S(=O)(=O)c3ccc(NC(=O)c4ccc(OC)c(OC)c4)cc3)cc2)cc1OC` [Decoy665] as the compound, how does the Type read?
A: Inactive (Decoy)

Q: With `COC(=O)CNC(=O)c1ccc(NC(=O)c2nc(NCc3ccco3)ncc2Cl)cc1` [Decoy529] as the compound, how does the Type read?
A: Inactive (Decoy)

Q: For `CO[C@@H]1O[C@@H]2CO[C@@H](c3ccccc3)O[C@H]2[C@H](O[C@@H]2O[C@H](COC(C)=O)[C@H](OC(C)=O)[C@H](OC(C)=O)[C@H]2OC(C)=O)[C@H]1NC(C)=O` [Decoy547], which Type is on record?
A: Inactive (Decoy)
